From PubChem BioAssay AID2305 (GlaxoSmithKline (GSK), 2010)

These compounds were tested on P. falciparum 3D7 growth, pLDH absorbance (assay: P. falciparum 3D7 growth inhibition, dose response, strain 3D7 (AID 2305)).
In the case of O=C(Nc1ccc(Cl)cc1)c1ccc(CN2CCCN(CC3CCCCC3)CC2)cc1, the IC50 is reported as 220 nM. CN(C)Cc1ccc(-c2ccc3ccnc(N)c3c2)cc1 was tested, and the IC50 was 380 nM. Cc1cccc(C)c1OC(=O)CSc1nnc(-c2ccccc2O)o1 gave an IC50 of 880 nM. With CCOCCCn1c(=N)c(C(=O)NC(C)c2ccccc2)cc2c(=O)n3cccc(C)c3nc21 (configuration not stated) the IC50 was 1200 nM. Work on CCn1cc2c3c(cc(C(=O)N[C@@H](Cc4ccccc4)[C@H](O)CNCc4cccc(OC)c4)cc31)N(C)S(=O)(=O)CC2 yielded an IC50 of 670 nM. For CCN1CCC(N(Cc2ccc(-c3ccc(C(F)(F)F)cc3)cc2)C(=O)Cn2c(CCc3cccc(F)c3F)cc(=O)c3cn(C)nc32)CC1, the IC50 was 240 nM. For CCCN1CCN(CCNC(=O)c2cccc(Nc3nccc(Nc4ccc(Oc5ccccc5)cc4)n3)c2)CC1, the IC50 was 240 nM. N#Cc1ccc(N2CCN(Cc3ccc(-c4ccc(-c5nc6ccccc6[nH]5)s4)cc3)CC2)nc1 showed an IC50 of 1080 nM. With O=C(NCCCCN1CCC(c2nc3ccccc3s2)CC1)c1cc2ccccc2[nH]1 the IC50 was 1020 nM. CCS[C@@H]1O[C@H](COC(=O)c2ccccc2)[C@H](OC(=O)c2ccccc2)[C@H](OC(=O)c2ccccc2)[C@H]1OC(=O)c1ccccc1 showed an IC50 of 810 nM. For N#Cc1ccc2c(c1)CCN(CCC1CCC(NC(=O)/C=C/c3ccc(Cl)c(Cl)c3)CC1)CC2 (configuration not stated), the IC50 was 420 nM. For O=C(Nc1ccnc2ccccc12)NC1CCN(CCc2ccccc2)CC1, the IC50 was 360 nM. In the case of C/C=C/COc1ccc(-c2c(C)[nH]c(C)c(Cl)c2=O)cc1, the IC50 is reported as 200 nM. CCCCOC(=O)C1=C(C)NC2=C(C(=O)CC(c3ccc(OC)c(OC)c3)C2)C1c1ccc(O)cc1 (configuration not stated) was tested, and the IC50 was 830 nM. Oc1ccc(-c2ccccc2)cc1CN1CCCCC1 showed an IC50 of 900 nM. Cc1cc2nc(-c3ccc(SCC(=O)Nc4ccc5c(c4)OCCO5)nc3)[nH]c2cc1C gave an IC50 of 990 nM. Compound COc1cc2c(cc1OC)C(C(=O)Nc1cc(OC)c(OC)c(OC)c1)C(c1ccc(SC)cc1)N(C)C2=O (configuration not stated) has an IC50 of 990 nM. With FC(F)(F)c1ccc2nc(-c3ccc(-c4ccc(CNCc5cnn(-c6ccccc6)n5)cc4)s3)[nH]c2c1 the IC50 was 460 nM. For Cn1nc(-c2ccc(CNC3CCc4ccccc43)cc2)c2cnc(NCCCN3CCCC3)nc21 (configuration not stated), the IC50 was 1110 nM. With CCC[C@@H]([C@@H](CC(C)C)C(=O)N[C@@H](CCCN=C(N)NS(C)(=O)=O)C(=O)Nc1nccs1)N(O)C=O the IC50 was 940 nM. In the case of COc1ccc2nccc([C@@H](O)CN3CCC(NCc4cc5c(F)ccc(F)c5[nH]4)CC3)c2n1, the IC50 is reported as 700 nM. C[C@@H](CC1CCCCC1)OC(=O)N(C)[C@H]1CCN(C#N)C1 was tested, and the IC50 was 220 nM. With Cc1[nH]c2ccc(-c3ccc(OC(F)(F)F)cc3)cc2c(=O)c1C#N the IC50 was 20 nM. CC(C)CCN1CCC(Oc2ccc(NC(=O)c3ccco3)cc2Cl)CC1 gave an IC50 of 680 nM. In the case of Cc1ccc(C)c(NC(=O)Nc2ccc(Nc3nc(C)cc(N4CCOCC4)n3)cc2)c1, the IC50 is reported as 980 nM. Compound Clc1ccc(CNc2ccnc(NCc3ccc4c(c3)OCCCO4)n2)c(Cl)c1 has an IC50 of 990 nM. Cc1nc(Nc2ccc(F)cc2)nc(N2CCc3cc(O)ccc3C2C)c1C (configuration not stated) was tested, and the IC50 was 750 nM. In the case of CC(=O)c1ccc2c(c1)[C@H](NC(=O)c1cccc(Cl)c1Cl)[C@@H](CO)C(C)(C)O2, the IC50 is reported as 690 nM. With Cc1ccc(Cc2c(C)nc3nc(N)nc(N)c3c2C)cc1 the IC50 was 240 nM. Work on COc1cccc2cc(C(=O)N[C@@H](CC(C)C)C(=O)N[C@H](/C=N/N3CCCC3=O)Cc3ccccc3)oc12 yielded an IC50 of 560 nM. In the case of O=S(=O)(c1ccccc1C(F)(F)F)C1C[C@H]2CC[C@@H](C1)N2S(=O)(=O)c1ccc(Cl)c(C(F)(F)F)c1 (some centres not stated), the IC50 is reported as 710 nM. In the case of O=C(NCCCCN1CCC(c2ccc3c(c2OCc2ccncc2)CCCC3)CC1)c1ccc(-c2ccc(C(F)(F)F)cc2)cc1, the IC50 is reported as 170 nM. CC(C)CNC(=S)N1CCCN(c2nc3ccc(Cl)cc3s2)CC1 showed an IC50 of 960 nM. Compound CC1Cc2ccccc2N1CC(=O)Nc1cc(C(F)(F)F)ccc1-n1cncn1 (configuration not stated) has an IC50 of 320 nM. COc1ccc(Nc2ncc3c(-c4cccc(NC(=O)c5ccccc5)c4)c[nH]c3n2)cc1OC was tested, and the IC50 was 460 nM. Work on CN1CCN(c2ccnc3cc4c(cc23)N(Cc2ccccc2)CC4)CC1 yielded an IC50 of 1140 nM. N/C(=N\c1cccc(Cc2ccc([N+](=O)[O-])cc2)n1)Nc1ccccc1 was tested, and the IC50 was 950 nM. Compound CC(C)CNCc1ccc(-c2cccc(CN(CCN(C)C)C(=O)NCCc3ccccc3)c2)cc1 has an IC50 of 1060 nM. With CCCC(=O)Nc1ccc(OCCCN(Cc2ccccc2F)c2ccc(C#N)c(C(F)(F)F)c2)cc1 the IC50 was 590 nM. Cc1onc(-c2ccccc2)c1-c1nc(NC2CCCC(C)C2)no1 (configuration not stated) gave an IC50 of 840 nM. In the case of CN(C)S(=O)(=O)n1ncc2c3c(N)nc(N)nc3ccc21, the IC50 is reported as 180 nM. Compound Cc1nn(C)cc1C(C)Nc1nncc(-c2ccc(C(F)(F)F)cc2)n1 (configuration not stated) has an IC50 of 250 nM. With Cc1ccc(-c2cc(C(=O)Nc3ccc(S(=O)(=O)N4CCCCC4C)cc3)[nH]n2)c(O)c1 (configuration not stated) the IC50 was 1080 nM. For CN1CCC(c2c[nH]c3ccc(NC(=O)Nc4ccc(-c5ccncc5)cc4Cl)cc23)CC1, the IC50 was 840 nM. With Cc1[nH]c(C)c(-c2ccc(-c3ccccc3Cl)nc2)c(=O)c1Cl the IC50 was 220 nM. Work on Cc1cc(C2NC(=O)c3ccccc3N2)c(C)n1-c1ccc2c(c1)OCO2 (configuration not stated) yielded an IC50 of 730 nM. In the case of COc1ccc(Nc2nc(N)c3cc(OC)c(OC)cc3n2)cc1OC, the IC50 is reported as 730 nM. Compound CCc1ccccc1NC(=O)CN1CCN(c2ncnc3scc(-c4ccc(F)cc4)c23)CC1 has an IC50 of 700 nM. In the case of Cc1cc(OCCCN=C(N)c2ccc3ccccc3c2)c(C(C)C)cc1Cl, the IC50 is reported as 970 nM. Cc1cc(N2CCCN(CC3CCCCC3)CC2)nc(Nc2ccc(Br)cc2)n1 was tested, and the IC50 was 940 nM. O=C(NCc1cccc2ccccc12)c1ccc(CNC2CCN(Cc3ccccc3)CC2)cc1 showed an IC50 of 840 nM. O=C(/C=C/c1ccc(Cl)c(Cl)c1)NC1CCN(Cc2ccc(O)cc2)CC1 showed an IC50 of 690 nM. Cc1nn(-c2cccc(Cl)c2)c2c1C(C(=O)c1ccc3c(c1)OCO3)CC(=O)N2 (configuration not stated) gave an IC50 of 370 nM. Compound Cc1cc(N)nc2ccc(-c3ccc(CCN)cc3)cc12 has an IC50 of 620 nM. For c1ccc(Oc2ccc(Nc3ccnc(Nc4ccc(OCCN5CCCCC5)cc4)n3)cc2)cc1, the IC50 was 600 nM. COc1cc2nc(N3CCC(CNC(=O)c4ccc(-c5ccc(C(F)(F)F)cc5)cc4)CC3)nc(N)c2cc1OC gave an IC50 of 130 nM. Work on COc1ccc2ncc(F)c(CCN3[C@@H]4CC[C@H]3CC(NCc3ccc5c(c3)OCCO5)C4)c2n1 (some centres not stated) yielded an IC50 of 230 nM. With Nc1c2c(nc3ccc(NC(=O)CCCCCCc4ccccc4)cc13)CCCC2 the IC50 was 250 nM. Compound Fc1cccc(COc2ccc(Nc3ncnc4ccc(-c5nnc(C(F)(F)F)o5)cc34)cc2Cl)c1 has an IC50 of 580 nM. Compound Fc1ccc(CNc2nc(-c3ccc(F)c(C(F)(F)F)c3)n(-c3cccc(C(F)(F)F)c3)n2)cc1 has an IC50 of 560 nM. In the case of Cc1cccc(CNc2nc(C)cc(N[C@@H](Cc3ccccc3)C(=O)NCc3cccc(F)c3)n2)c1, the IC50 is reported as 1040 nM. O=C(CCCCCCc1ccccc1)Nc1ccc2nc3c(c(NCc4ccccc4)c2c1)CCCC3 was tested, and the IC50 was 360 nM. CCCCc1cc(NCc2ccncc2)nc(Nc2ccc(OC)cc2)n1 showed an IC50 of 1060 nM. COc1ccc2nccc([C@@H](O)CN3CC[C@H](NCc4nc5c(cc4F)SCC(=O)N5)[C@H](F)C3)c2c1 gave an IC50 of 730 nM. OCC(c1ccccc1)n1c(COc2ccc(Cl)cc2)nc2c(OCCCN3CCCCC3)cccc21 (configuration not stated) was tested, and the IC50 was 920 nM. For O=C(NC1CCN(CC2(c3ccc(Cl)cc3)CCC2)CC1)c1ccn[nH]1, the IC50 was 420 nM. CN(C)CC(=O)N(Cc1ccc(Cl)c(Cl)c1)Cc1csc(-c2ccc(CNCc3ccccc3)cc2)n1 showed an IC50 of 1050 nM. In the case of C=CCOc1ccc(C(=O)Nc2nonc2-c2ccc(OC)c(OC)c2)cc1, the IC50 is reported as 640 nM. Cc1cccc2[nH]c(-c3ccc(-c4cccc(CNCCc5ccncc5)c4)cc3)nc12 gave an IC50 of 200 nM. In the case of CC(C)c1cccc(C(NC(=O)[C@H]2Cc3ccccc3CN2C(=O)c2cccc(N3CCOCC3)c2)C2CCCC2)c1 (some centres not stated), the IC50 is reported as 720 nM. In the case of CC(C)c1ccc(NC(=O)N[C@H]2CCN(CCCCCNC(=O)/C=C/c3ccc(Cl)c(Cl)c3)C2)cc1, the IC50 is reported as 710 nM. In the case of O=c1cc(NCCCNCc2cc(Br)ccc2F)[nH]c2ccccc12, the IC50 is reported as 850 nM. With O=C(NCC1CCC(CNCCCc2ccccc2)CC1)Nc1ccc(Cl)c(Cl)c1 (configuration not stated) the IC50 was 770 nM. Compound NC1=NC2(CCCCC2)N(OCCCCCCc2ccccc2)C(N)=N1 has an IC50 of 350 nM. Work on COc1ccc(C2CC(c3cccs3)=NN2C(=O)c2ccco2)cc1OC (configuration not stated) yielded an IC50 of 170 nM. N#Cc1ccc2c(c1)CCN(CCC1CCC(NC(=O)c3ccc(-c4ccccc4)s3)CC1)CC2 (configuration not stated) showed an IC50 of 680 nM. Oc1cccc(C2CCCN(Cc3cccc4cc[nH]c34)C2)c1 (configuration not stated) showed an IC50 of 510 nM. For COc1ccc(CNC2Cc3ccccc3C2)cc1-c1cccc(S(=O)(=O)NCCN2CCCC2)c1, the IC50 was 760 nM. With CCCN1CCN(c2cc(S(=O)(=O)Nc3ccc(C(=O)NCc4cccc(C(F)(F)F)c4)cc3)ccc2OC)CC1 the IC50 was 1010 nM. With CN(C)Cc1ccc(CN2CCN(CCOc3ccc(-c4ccc(Cl)cc4)cc3)CC2)o1 the IC50 was 1020 nM. In the case of CN(c1ccc(NC(=O)c2ccc(F)cc2)cc1)C1CCN(Cc2cccc(F)c2)C1 (configuration not stated), the IC50 is reported as 1410 nM. CCc1ccc(S(=O)(=O)Nc2ccc(CCN3CCC(N4CCCCC4)CC3)cc2)cc1 was tested, and the IC50 was 990 nM. For COc1ccccc1CCCN1C(=O)C(c2ccccc2)(c2ccccc2)N=C1N, the IC50 was 270 nM. In the case of NC(=O)Nc1ccc2cn[nH]c2c1, the IC50 is reported as 210 nM. Work on CCOCCCNc1sc(S(=O)(=O)c2ccccc2)nc1S(=O)(=O)c1ccc(C)cc1 yielded an IC50 of 810 nM. With Nc1c2c(nc3ccc(C(=O)Nc4ccc(Br)cc4)cc13)CCCC2 the IC50 was 150 nM. Work on CC(C)=CC1C(C(=O)n2c(N)nc3ccccc32)C1(C)C (configuration not stated) yielded an IC50 of 190 nM. CC(=O)C1(c2ccccc2)CCN(CCC(NC(=O)c2cc(C(F)(F)F)cc(C(F)(F)F)c2)c2ccc(Cl)c(Cl)c2)CC1 (configuration not stated) gave an IC50 of 1190 nM. COc1cccc(NC(=O)Nc2ccc(C)c(-c3ccc(C(=O)Nc4ccncc4)cc3)c2)c1 was tested, and the IC50 was 520 nM. With Cc1cc(OCCN2CCCCC2)ccc1NC(=O)c1cccc2c(=O)n(Cc3ccc(Cl)cc3)cnc12 the IC50 was 1060 nM. Oc1ccc(CCNCCCCCCNCCc2ccc(Cl)c3ccccc23)cc1O was tested, and the IC50 was 720 nM. In the case of Cc1c(C)c2c(c(C)c1O)CC[C@@](C)(C(=O)N1CCC(CCN3CCC(c4c[nH]c5ccccc45)CC3)CC1)O2, the IC50 is reported as 670 nM. Compound O=C(NC1CCC(CN2CCC(c3c[nH]c4ccccc34)CC2)CC1)c1cc(-c2ccccc2Cl)oc1C(F)(F)F (configuration not stated) has an IC50 of 770 nM. Compound Nc1nccc2ccc(-c3ccc(Oc4ccccc4)cc3)cc12 has an IC50 of 280 nM. For O=C(Nc1cccc(CN2CCCN(Cc3cccc(O)c3)CC2)c1)c1ccc(-c2ccccc2)cc1, the IC50 was 640 nM. Compound CC1(CCc2ccccc2)N=C(Nc2ccc(Cl)cc2)N=C(N)C1c1ccc(Cl)c(Cl)c1 (configuration not stated) has an IC50 of 220 nM. COc1ccc(-c2cnc3[nH]cc(-c4ccc(C(=O)O)c(C)c4)c3c2)cn1 gave an IC50 of 310 nM.
